In ChEMBL document CHEMBL2034882, “Synthesis, biological evaluation and molecular docking studies of novel 2-(1,3,4-oxadiazol-2-ylthio)-1-phenylethanone derivatives” (Bioorg Med Chem, 2012):

Legend:
MCF7 = test: Cytotoxicity against human MCF7 cells after 24 hrs using Annexin VeFITC/propidium iodide staining by MTT assay; format: functional, cell-based; details: MCF7, 24 h
A-431 [1] = test: Cytotoxicity against human A431 cells after 24 hrs […] by MTT assay; format: functional, cell-based; details: A-431, 24 h
[2] = Inhibition of bovine brain FAK after 20 mins by turbidimetry; design: species or system Bos taurus
A-431 [3] = test: Induction of apoptosis in human A431 cells assessed as late apoptotic cells at 5 nM after 24 hrs using Annexin VeFITC/propidium iodide staining by flow cytometry; format: functional
A-431 [4] = test: Induction of apoptosis in human A431 cells assessed as early apoptotic cells at 5 nM after 24 hrs using Annexin VeFITC/propidium iodide staining by flow cytometry; format: functional
A-431 [5] = test: Induction of apoptosis in human A431 cells assessed as necrotic cells at 5 nM after 24 hrs using Annexin VeFITC/propidium iodide staining by flow cytometry; format: functional
A-431 [6] = test: Induction of apoptosis in human A431 cells assessed as early apoptotic cells at 10 nM after 24 hrs using Annexin VeFITC/propidium iodide staining by flow cytometry; format: functional
A-431 [7] = test: Induction of apoptosis in human A431 cells assessed as late apoptotic cells at 10 nM after 24 hrs using Annexin VeFITC/propidium iodide staining by flow cytometry; format: functional
A-431 [8] = test: Induction of apoptosis in human A431 cells assessed as necrotic cells at 10 nM after 24 hrs using Annexin VeFITC/propidium iodide staining by flow cytometry; format: functional
A-431 [9] = test: Induction of apoptosis in human A431 cells assessed as early apoptotic cells at 20 nM after 24 hrs using Annexin VeFITC/propidium iodide staining by flow cytometry; format: functional
A-431 [10] = test: Induction of apoptosis in human A431 cells assessed as late apoptotic cells at 20 nM after 24 hrs using Annexin VeFITC/propidium iodide staining by flow cytometry; format: functional
A-431 [11] = test: Induction of apoptosis in human A431 cells assessed as necrotic cells at 20 nM after 24 hrs using Annexin VeFITC/propidium iodide staining by flow cytometry; format: functional
A-431 [12] = test: Induction of apoptosis in human A431 cells assessed as early apoptotic cells at 40 nM after 24 hrs using Annexin VeFITC/propidium iodide staining by flow cytometry; format: functional
A-431 [13] = test: Induction of apoptosis in human A431 cells assessed as late apoptotic cells at 40 nM after 24 hrs using Annexin VeFITC/propidium iodide staining by flow cytometry; format: functional
A-431 [14] = test: Induction of apoptosis in human A431 cells assessed as necrotic cells at 40 nM after 24 hrs using Annexin VeFITC/propidium iodide staining by flow cytometry; format: functional
A-431 [15] = test: Induction of apoptosis in human A431 cells assessed as viable cells at 5 nM after 24 hrs using Annexin VeFITC/propidium iodide staining by flow cytometry; format: functional; details: A-431, 24 h, read-out: Activity
A-431 [16] = test: Induction of apoptosis in human A431 cells assessed as viable cells at 10 nM after 24 hrs using Annexin VeFITC/propidium iodide staining by flow cytometry; format: functional; details: A-431, 24 h, read-out: Activity
A-431 [17] = test: Induction of apoptosis in human A431 cells assessed as viable cells at 20 nM after 24 hrs using Annexin VeFITC/propidium iodide staining by flow cytometry; format: functional; details: A-431, 24 h, read-out: Activity
A-431 [18] = test: Induction of apoptosis in human A431 cells assessed as viable cells at 40 nM after 24 hrs using Annexin VeFITC/propidium iodide staining by flow cytometry; format: functional; details: A-431, 24 h, read-out: Activity
A-431 [19] = test: Induction of apoptosis in human A431 cells after 24 hrs using Annexin VeFITC/propidium iodide staining by flow cytometry; format: functional, cell-based

SMILES | IC50 [2] [nM] | IC50 (MCF7) [nM] | IC50 (A-431 [1]) [nM] | also measured
O=C(CSc1nnc(-c2ccnc(Cl)c2)o1)c1ccccc1 | 302000 | 1290 | 3200 | 
CCOc1ccccc1-c1nnc(SCC(=O)c2ccccc2)o1 | 59800 | 2670 | 650 | 
CN(C)c1ccc(-c2nnc(SCC(=O)c3ccc(Br)cc3)o2)cc1 | 21500 | 550 | 200 | 
COc1ccccc1-c1nnc(SCC(=O)c2ccccc2)o1 | 580 | 2070 | 20 | 
CN(C)c1ccc(-c2nnc(SCC(=O)c3ccccc3)o2)cc1 | 17500 | 210 | 160 | 
COc1ccc(-c2nnc(SCC(=O)c3ccccc3)o2)c(O)c1 | 20500 | 280 | 180 | 
COc1ccc(-c2nnc(SCC(=O)c3ccc(Br)cc3)o2)c(O)c1 | 35400 | 260 | 330 | 
O=C(CSc1nnc(-c2cccc3ccccc23)o1)c1ccccc1 | 5800 | 230 | 130 | 
CN[C@@H]1C[C@H]2O[C@@](C)([C@@H]1OC)n1c3ccccc3c3c4c(c5c6ccccc6n2c5c31)C(=O)NC4 [STAUROSPORINE] |  |  | 70 | 
Nc1cc(-c2nnc(SCC(=O)c3ccc(Br)cc3)o2)ccn1 | 1150 | 200 | 60 | 
CC(C)(C)c1ccc(-c2nnc(SCC(=O)c3ccc(Br)cc3)o2)cc1 | 9800 | 1950 | 100 | 
Cc1ccc(-c2nnc(SCC(=O)c3ccccc3)o2)c(O)c1 | 760 | 150 | 60 | 

Continued by falling IC50 [2], values first:

IC50 [2] [nM] | SMILES | IC50 (MCF7) [nM] | IC50 (A-431 [1]) [nM] | also measured
98700 | O=C(CSc1nnc(-c2ccncc2)o1)c1ccccc1 | 370 | 1000 | 
76300 | O=C(CSc1nnc(-c2ccncc2)o1)c1ccc(Br)cc1 | 4230 | 780 | 
40500 | CCOc1ccccc1-c1nnc(SCC(=O)c2ccc(Br)cc2)o1 | 460 | 360 | 
19800 | O=C(CSc1nnc(-c2ccccc2F)o1)c1ccc(Br)cc1 | 240 | 200 | 
18600 | CC(C)(C)c1ccc(-c2nnc(SCC(=O)c3ccccc3)o2)cc1 | 50 | 170 | 
17900 | O=C(CSc1nnc(-c2cccc3ccccc23)o1)c1ccc(Br)cc1 | 260 | 160 | 
2670 | Cc1ccc(-c2nnc(SCC(=O)c3ccc(Br)cc3)o2)c(O)c1 | 2070 | 50 | 
1350 | COc1ccccc1-c1nnc(SCC(=O)c2ccc(Br)cc2)o1 | 600 | 80 | 
1220 | O=C(CSc1nnc(-c2ccccc2F)o1)c1ccccc1 | 260 | 50 | 
1080 | COc1cc(OC)cc(-c2nnc(SCC(=O)c3ccc(Br)cc3)o2)c1 | 270 | 60 | 
970 | O=C(CSc1nnc(-c2ccnc(Cl)c2)o1)c1ccc(Br)cc1 | 270 | 50 | 
650 | COc1cc(OC)cc(-c2nnc(SCC(=O)c3ccccc3)o2)c1 | 170 | 40 | 
20 | Nc1cc(-c2nnc(SCC(=O)c3ccccc3)o2)ccn1 | 140 | 10 | Activity (A-431 [3]): 9.47%; Activity (A-431 [4]): 16.77%; Activity (A-431 [5]): 8%; Activity (A-431 [6]): 17.47%; Activity (A-431 [7]): 12.23%; Activity (A-431 [8]): 9%; Activity (A-431 [9]): 28.92%; Activity (A-431 [10]): 15.26%; Activity (A-431 [11]): 6%; Activity (A-431 [12]): 43.51%; Activity (A-431 [13]): 16.65%; Activity (A-431 [14]): 6%; viability at 0.005 µM (A-431 [15]): 65.8%; viability at 0.01 µM (A-431 [16]): 61.3%; viability at 0.02 µM (A-431 [17]): 49.8%; viability at 0.04 µM (A-431 [18]): 33.8%; Activity (A-431 [19]): Dose-dependent effect
